The melting point is the temperature, or range, at which the solid turns liquid.

On to `COc1cc(OC)c(-c2cc3ccccc3s2)cc1/C=C/C(=O)c1ccc(C(=O)O)cc1` [Example 3, 4-[(2E)-3-(5-benzo[b]thien-2-yl-2,4-dimethoxyphenyl)-1-oxo-2-propenyl]-benzoic acid], for which the melting point is 231 to 232 °C (dec.). The figure for `COc1cc(OC)c(-c2cc3ccccc3s2)cc1/C=C\C(=O)c1ccc(C(=O)O)cc1` [Example 66, 4-[(2Z)-3-(5-benzo[b]thien-2-yl-2,4-dimethoxyphenyl)-1-oxo-2-propenyl]-benzoic acid] is 176 to 178 °C.
